Here are results for 31 molecules from the Kinase Knowledgebase extract (Sharma et al. 2016).

For assay [1], the target named is MAPK14 (human) (UniProt Q16539). In words: Enzyme Assay.
For assay [2] the target is unchanged. In words: Enzyme Assay. This is another data set of the same source.
Assay [3] has the same target. As to the kind of experiment: p38 --- IL-1 Inhibition (PBMC cells).
Assay [4] has the same target. As to the kind of experiment: p38 --- TNF Inhibition (PBMC cells).
Assay [5] has as its target ROCK2 (human) (UniProt O75116).
Assay [6] deals with EGFR (UniProt P00533).
Sequence of EGFR (P00533 whole entry, looked up): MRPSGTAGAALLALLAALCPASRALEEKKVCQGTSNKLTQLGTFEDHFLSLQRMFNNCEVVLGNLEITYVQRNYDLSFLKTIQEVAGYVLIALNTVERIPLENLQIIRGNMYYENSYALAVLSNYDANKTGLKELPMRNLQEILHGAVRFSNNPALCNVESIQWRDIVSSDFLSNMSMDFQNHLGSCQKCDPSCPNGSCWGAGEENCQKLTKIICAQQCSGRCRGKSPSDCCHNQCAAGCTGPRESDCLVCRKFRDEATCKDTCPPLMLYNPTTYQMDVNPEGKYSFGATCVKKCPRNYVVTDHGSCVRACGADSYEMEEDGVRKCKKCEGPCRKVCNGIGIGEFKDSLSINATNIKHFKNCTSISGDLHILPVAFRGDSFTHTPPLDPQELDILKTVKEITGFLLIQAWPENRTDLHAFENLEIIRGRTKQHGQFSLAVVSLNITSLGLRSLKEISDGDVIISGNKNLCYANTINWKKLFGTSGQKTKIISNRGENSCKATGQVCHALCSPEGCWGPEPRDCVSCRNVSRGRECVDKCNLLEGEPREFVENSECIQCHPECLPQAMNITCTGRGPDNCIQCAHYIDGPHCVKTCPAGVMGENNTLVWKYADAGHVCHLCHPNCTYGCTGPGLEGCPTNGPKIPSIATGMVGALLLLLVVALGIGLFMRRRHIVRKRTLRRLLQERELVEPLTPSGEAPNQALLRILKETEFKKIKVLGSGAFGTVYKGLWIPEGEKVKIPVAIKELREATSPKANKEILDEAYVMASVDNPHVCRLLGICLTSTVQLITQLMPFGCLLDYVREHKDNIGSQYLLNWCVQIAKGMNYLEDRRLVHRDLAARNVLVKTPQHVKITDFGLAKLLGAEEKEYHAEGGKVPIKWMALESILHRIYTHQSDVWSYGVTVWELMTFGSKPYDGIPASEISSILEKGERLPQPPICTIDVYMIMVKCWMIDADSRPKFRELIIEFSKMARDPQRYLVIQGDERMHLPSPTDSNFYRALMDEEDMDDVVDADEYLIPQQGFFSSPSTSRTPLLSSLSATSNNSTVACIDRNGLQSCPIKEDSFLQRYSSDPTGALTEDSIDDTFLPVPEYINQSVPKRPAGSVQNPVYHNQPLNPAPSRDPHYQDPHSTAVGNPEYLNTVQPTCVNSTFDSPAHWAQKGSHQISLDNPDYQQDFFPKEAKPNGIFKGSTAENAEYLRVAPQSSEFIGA
Assay [7] addresses EGFR (human) (UniProt P00533).
Assay [8] has as its target EGFR (UniProt P00533). This is another data set of the same source.
The target of assay [9] is EGFR (human) (UniProt P00533). The source holds these as a separate data set.
Sequence of EGFR (human) (P00533 whole entry, looked up): as above
For assay [10], the target named is EGFR (human) (UniProt P00533). To be noted: a431.
Assay [11] concerns the target EGFR (UniProt P00533). This is another data set of the same source.
The target in assay [12] is MAPK14 (UniProt Q16539). In words: p38-alpha 2 Inhibition.
Sequence of MAPK14 (Q16539 whole entry, looked up): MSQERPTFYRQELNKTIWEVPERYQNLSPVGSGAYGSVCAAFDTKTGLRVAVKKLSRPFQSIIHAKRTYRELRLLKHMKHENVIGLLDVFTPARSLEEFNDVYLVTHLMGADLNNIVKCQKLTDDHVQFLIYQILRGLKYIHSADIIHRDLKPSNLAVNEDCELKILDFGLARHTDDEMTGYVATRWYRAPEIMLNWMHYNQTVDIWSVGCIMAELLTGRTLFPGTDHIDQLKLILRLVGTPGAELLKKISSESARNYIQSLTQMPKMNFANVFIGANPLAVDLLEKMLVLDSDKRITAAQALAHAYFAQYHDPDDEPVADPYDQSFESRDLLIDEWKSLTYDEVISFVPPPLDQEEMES
In assay [13] the target is EGFR (human) (UniProt P00533). Particulars: a431. The source holds these as a separate data set.
Assay [14] concerns the target EGFR (human) (UniProt P00533). The source holds these as a separate data set.
Assay [15] addresses ROCK2 (human) (UniProt O75116). In words: Enzyme Assay.
For assay [16], the target named is ROCK2 (human) (UniProt O75116). As to the kind of experiment: Enzyme Assay. The source holds these as a separate data set.
Sequence of ROCK2 (human) (O75116 whole entry, looked up): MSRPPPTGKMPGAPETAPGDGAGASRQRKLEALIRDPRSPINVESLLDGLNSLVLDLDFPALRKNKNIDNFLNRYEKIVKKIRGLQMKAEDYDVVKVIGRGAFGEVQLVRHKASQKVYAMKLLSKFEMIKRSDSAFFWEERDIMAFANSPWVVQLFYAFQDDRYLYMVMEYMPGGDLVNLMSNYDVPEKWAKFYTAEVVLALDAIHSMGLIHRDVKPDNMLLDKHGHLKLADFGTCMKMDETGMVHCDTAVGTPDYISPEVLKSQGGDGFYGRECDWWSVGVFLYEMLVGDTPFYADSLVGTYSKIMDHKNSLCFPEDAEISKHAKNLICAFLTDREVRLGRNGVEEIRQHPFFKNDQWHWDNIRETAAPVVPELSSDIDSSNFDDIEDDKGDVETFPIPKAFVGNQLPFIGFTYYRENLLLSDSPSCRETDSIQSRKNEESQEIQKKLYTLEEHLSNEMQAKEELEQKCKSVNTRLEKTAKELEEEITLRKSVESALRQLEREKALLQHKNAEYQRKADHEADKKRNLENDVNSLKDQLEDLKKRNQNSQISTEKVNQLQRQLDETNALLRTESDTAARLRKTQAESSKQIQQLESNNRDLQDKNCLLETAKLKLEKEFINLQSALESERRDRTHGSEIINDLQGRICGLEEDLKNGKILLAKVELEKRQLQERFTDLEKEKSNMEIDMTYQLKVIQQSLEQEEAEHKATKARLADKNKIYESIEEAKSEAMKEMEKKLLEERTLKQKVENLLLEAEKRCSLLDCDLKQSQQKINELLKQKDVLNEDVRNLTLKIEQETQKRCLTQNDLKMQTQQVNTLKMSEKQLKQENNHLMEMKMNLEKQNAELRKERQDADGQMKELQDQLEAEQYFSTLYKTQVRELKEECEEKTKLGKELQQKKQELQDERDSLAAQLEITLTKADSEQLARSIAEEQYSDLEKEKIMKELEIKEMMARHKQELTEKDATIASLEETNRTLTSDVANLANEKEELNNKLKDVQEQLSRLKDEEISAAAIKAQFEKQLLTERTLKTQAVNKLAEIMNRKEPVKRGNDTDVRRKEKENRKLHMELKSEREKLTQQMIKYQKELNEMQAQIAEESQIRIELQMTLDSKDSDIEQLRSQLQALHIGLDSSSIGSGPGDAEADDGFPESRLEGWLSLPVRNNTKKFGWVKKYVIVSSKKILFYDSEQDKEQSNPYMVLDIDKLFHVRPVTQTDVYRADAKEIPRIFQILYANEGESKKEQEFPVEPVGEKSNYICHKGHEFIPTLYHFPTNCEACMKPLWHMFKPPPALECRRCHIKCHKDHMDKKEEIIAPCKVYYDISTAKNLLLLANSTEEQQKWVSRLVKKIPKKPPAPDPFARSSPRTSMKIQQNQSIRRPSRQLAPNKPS
In assay [17] the target is EGFR (human) (UniProt P00533). The source holds these as a separate data set.
Assay [18] deals with EGFR (UniProt P00533). This is another data set of the same source.
For assay [19], the target named is EGFR (human) (UniProt P00533). Particulars: a431. The source holds these as a separate data set.
Assay [20] has as its target MAPK14 (UniProt Q16539). As to the kind of experiment: p38 Binding Asssy.
The next assay deals with PIK3CA (UniProt P42336). In words: PIK3CA Inhibition.
In assay [21] the target is EGFR (UniProt P00533). This is another data set of the same source.
Assay [22] addresses EGFR (mouse) (UniProt P00533). To be noted: swiss 3t3 fibroblast.
Assay [23] deals with MAPK14 (sprague-dawley rat). In words: p38-mediated TNF-alpha Inhibition (Sprauge-Dawley Rats). To be noted: dose or concentration not given here.
Assay [24] addresses EGFR (mouse) (UniProt P00533). Particulars: balb/mk cells.
Assay [25] has as its target EGFR (UniProt P00533). The source holds these as a separate data set.
The next assay deals with EGFR (murine) (UniProt P00533). To be noted: nih3t3.

Sequence of MAPK14 (human) (Q16539 whole entry, looked up): as the sequence (Q16539 whole entry, looked up) above

As for `Cc1ccc(-c2ccnc(C(C)(C)O)n2)cc1-n1c(C)nc(OCc2ncc(F)cc2F)c(Cl)c1=O`, the 50% inhibitory concentration (IC50) (as a rule, the midpoint of a concentration-inhibition curve) at MAPK14 (human) [1] was found to be 566 nM; at MAPK14 (human) [2], 40 nM.

On to `Cc1cccc(Sc2ccc3c(-c4c(Cl)cccc4Cl)c(=O)ncn3n2)c1`, for which the IC50 against MAPK14 (human) [3] is 210 nM; on MAPK14 (human) [4], 280 nM. With `O=C(O)C[C@@H](NC(=O)c1ccc2c(c1)OCc1cnccc1-2)c1ccccc1`, the IC50 against ROCK2 (human) [5] amounted to 516 nM. As to `CCn1cnc2c(Nc3cccc(Cl)c3)nc(N[C@@H]3CCCC[C@@H]3N)nc21`, the half-inhibitory concentration (IC50) at EGFR [6] was > 10000 nM.

On EGFR (human) [7], `Nc1nc(Nc2ccccc2)c2c(n1)[nH]c1ccccc12` gave a 50% inhibitory concentration (IC50) of 147 nM. As for `COc1ccc(OC)c(COc2ccc(O)c(C(=O)O)c2)c1`, the concentration for half-maximal inhibition (IC50) against EGFR [8] was > 100000 nM. `COCC=CC(=O)Nc1ccc2ncnc(Nc3cccc(Br)c3)c2c1`: the half-inhibitory concentration (IC50) worked out at 1130 nM on EGFR (human) [9] and 8500 nM at EGFR (human) [10]. At EGFR [11], `C=CC(=O)Nc1cc2c(Nc3cccc(Br)c3)c(C#N)cnc2cc1OC` showed an IC50 of 810 nM. On to `NC(=O)c1ccccc1NC(=O)Nc1ccc(Cl)c(Cl)c1`, for which, at MAPK14 [12], the half-inhibitory concentration (IC50) amounted to 100 nM. That is a sub-micromolar value. Regarding `CCn1cnc2c(Nc3cccc(Cl)c3)nc(N[C@H]3CC[C@@H](N)CC3)nc21`, the IC50 on EGFR [6] was 5300 nM.

Take `Oc1ccc2ncnc(Nc3cccc(Br)c3)c2c1`: the Ki (in general, the dissociation constant of the complex between target and ligand, obtained from inhibition or displacement) on EGFR (human) [13] is 0.025 nM. This counts as picomolar.

For `Cc1cc(N2CCN(CCC#N)CC2)cc2[nH]c(-c3c(NC[C@@H](O)c4ccccc4Cl)cc[nH]c3=O)nc12`, on EGFR (human) [14], the IC50 is > 10000 nM. Consider `NCc1ccc(C(=O)Nc2ccncc2F)cc1-c1cccc(C(=O)Nc2ccc(C(=O)O)cc2)c1`, for which the IC50 on ROCK2 (human) [15] came out at 4.1 nM; at ROCK2 (human) [16], 1 nM. For `O=C(C=CCN1CCOCC1)Nc1ccc2ncnc(Nc3cccc(Br)c3)c2c1`, the results for the IC50 against EGFR (human) [9] and on EGFR (human) [10] were 74 nM and 1890 nM, respectively. Consider `CCn1c(=O)c(-c2c(Cl)cccc2Cl)cc2cnc(Nc3ccncc3)nc21`, for which the IC50 at EGFR (human) [17] is 250 nM. `C=CC(=O)c1ccc2ccccc2c1` yielded a half-inhibitory concentration (IC50) on EGFR [18] of 12500 nM. As for `COc1cccc([C@@H](C)NC(=O)c2ccc3c(c2)oc2c(C)nccc23)c1`, the 50% inhibitory concentration (IC50) at ROCK2 (human) [5] is 2.66 nM.

Molecule `CNC(=O)c1ccc(S(=O)(=O)Oc2ccc(/C=C/[N+](=O)[O-])cc2)cc1` yielded a 50% inhibitory concentration (IC50) against EGFR (human) [19] of 37500 nM. This counts as double-digit micromolar.

`CC(C)OC(=O)Cc1cccc(NC(=O)c2cccc(-c3cc(C(=O)Nc4ccncc4F)ccc3CN)c2)c1`: the concentration for half-maximal inhibition (IC50) at ROCK2 (human) [15] and at ROCK2 (human) [16] was < 1 nM throughout. In the case of `[N-]=[N+]=Nc1cccc(-c2ncn(CCCNC(=O)c3ccc(I)cc3)c2-c2ccncc2)c1`, the IC50 on MAPK14 [20] is 46 nM. Take `C[C@H](NC(=O)c1ccc(S(=O)(=O)Oc2ccc(/C=C/[N+](=O)[O-])cc2)cc1)C(=O)N[C@@H](C)C(=O)OC(C)(C)C`: the IC50 against EGFR (human) [19] was 37500 nM. On PIK3CA, `CCCCCCCCCCCCCCCC(=O)OC[C@H](COP(=O)(O)O[C@H]1[C@H](O)[C@@H](O)[C@H](O)C[C@H]1O)OC(=O)CCCCCCCCCCCCCCC` gave an IC50 of 38400 nM.

In the case of `COc1cc2ncnc(Nc3ccc(F)c(Cl)c3)c2cc1OCCN1CCN(C)CC1`, the half-maximal inhibitory concentration (IC50) against EGFR [21] came out at 10 nM.

Molecule `CCCCCCCCCCCCCCCCCCOC[C@H](COP(=O)(O)O[C@H]1[C@H](O)[C@@H](O)CC[C@H]1O)OC` showed an IC50 at PIK3CA of 800 nM. As to `O=C(O)Cc1c(SSc2[nH]c3ccccc3c2CC(=O)O)[nH]c2ccccc12`, in the assay with EGFR (mouse) [22], the IC50 was > 50000 nM. For the molecule `COc1cc2ncnc(Nc3ccc(F)c(Cl)c3)c2cc1OCCN1CCOCC1`, the IC50 at EGFR [21] was determined as 10 nM. For `Cc1ccc(Sc2ccc3c(-c4c(Cl)cccc4Cl)c(=O)ncn3n2)cc1`, the IC50 on MAPK14 (human) [3] is 350 nM; against MAPK14 (human) [4], 870 nM.

Consider `CNCC#Cc1cccc(C(=O)c2cnn(-c3ccc(F)cc3)c2N)c1`, for which, in assay [23], the inhibition (as a rule, the share of the control response that was lost under treatment) was 86%.

As for `C[C@H](NC(=O)[C@H](C)NC(=O)c1ccc(S(=O)(=O)Oc2ccc(/C=C/[N+](=O)[O-])cc2)cc1)C(=O)O`, the IC50 in the assay with EGFR (mouse) [24] is > 50000 nM. At EGFR [25], `Cn1ccc2cc3c(Nc4cccc(Br)c4)ncnc3cc21` showed an IC50 of 0.5 nM. `N#Cc1ccc(NC(=S)Nc2ccc(S(=O)(=O)N3CCCCC3)cc2)cc1`: the IC50 with EGFR (murine) is > 100000 nM.
